Laboratory results: patent publication US7901724B2, “Fermented tea obtained by tea-rolling processing of tea material leaves and loquat leaves, and composition having extract contained in fermented tea as active component” (Nagasaki Prefectural Government, priority 2004, dated 2011)

Tested on: normal rat
Assay: Maltose load in normal rat, single administration, blood glucose levels
Format: in vivo
Conditions: maltose 2 g/kg load
Description: Maltose was administered to a normal rat at a dosage of 2 g per kg of the body weight. Subsequently, an extract obtained by extracting the fermented tea obtained by means of tea-rolling processing with hot water was administered to the rat at a dosage of 20 mg per kg of the body weight, or a product was administered to the rat at a dosage of 20 mg per kg of the body weight, in which a plant in Sri Lanka, one of the materials having high activities with the highest level among the materials reported heretofore (J. Agri. Food. Chem. 2004) was extracted with methanol, then concentrated, and then freeze-dried, followed by dissolving the freeze-dried product in water. 30 minutes, 60 minutes, and 120 minutes after the administration, the blood glucose levels were measured.
As an indication of 50% reduction of the elevation of blood glucose levels, EC50 is employed.
Maltose was administrated to a normal rat at a dosage of 2 g per kg of the body weight. Subsequently, an extract obtained by extracting the fermented tea obtained by means of tea-rolling processing with hot water was administered at a dosage of 10 mg per kg of the body weight or 20 mg per kg of the body weight. A decreasing rate of the total blood glucose level area up to 120 minutes after carrying out carbohydrate load (AUCO-120) is shown in Table 6.

Question: How did the “EC50 (50% reduction of the elevation of blood glucose levels)” value turn out when C[C@H]1O[C@H](O[C@H]2[C@H](O)[C@@H](O)[C@@H](O[C@H]3[C@H](O)[C@@H](O)C(O)O[C@@H]3CO)O[C@@H]2CO)[C@H](O)[C@@H](O)[C@@H]1N[C@H]1C=C(CO)[C@@H](O)[C@H](O)[C@H]1O (stereo partly shown) [Acarbose, acarbose] was run?
Answer: Its value is 3.1 mg/kg.
